The text below walks through data of patent publication US12583856B2, “Inhibitors of protein kinase A” (Blueprint Medicines Corporation, priority 2021, dated 2026).

Series [1] has as its system FL-HCC (LI5132) PDX tumors. Nature of the series: Efficacy study in FL-HCC (LI5132) patient-derived xenograft (PDX) model. The following applies: oral delivery; compound 144: 30 mg/kg PO QDX34; FIG. 3. It counts as in vivo. (In general: In xenograft studies the graft and the host belong to different species.)
Description: Efficacy: To establish the PDX model, 72 mice were inoculated with patient tumor cells to yield at least 36 mice with tumors of the required size. 18 of these mice were selected for the study.
The test system of series [2] is PKA (phosphorylation of VASP on Serine 157). Nature of the series: Cellular potency assay: P-VASP(157) HTRF in Forskolin-stimulated Huh7 cells. In kind it is cell-based. Conditions: Homo sapiens, Huh-7, 4 hours compound, 5 μM Forskolin 30 minutes, read-out: Phos VASP(S157) IC50. A digest of the protocol: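 Huh7 cells in serum-free DMEM were pretreated with compound for 4 h at 37 °C (0.24% DMSO final), then stimulated with 5 μM forskolin for 30 min. Lysates were assayed for phospho-VASP Ser157 by HTRF sandwich immunoassay, read at 665/620 nm.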
In general terms: TR-FRET usually uses a lanthanide donor and a delayed reading to cut background.

The target in series [3] is T1, PRKACA (Homo sapiens, UniProt P17612).
T1 construct: purchased Millipore 539482
Description: PRKACA assay at Km (EZ Reader 2 electrophoretic mobility shift). It counts as biochemical. The following applies: 5 μM ATP (Km), 1 μM Kemptide, 90 minutes at 25 C; read-out: Enz PRKACA IC50. A digest of the protocol:
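PRKACA (0.18 nM) was incubated with 1 μM 5-FAM-Kemptide and 5 μM ATP for 90 min at 25 °C in HEPES pH 7.5 buffer with 10 mM MgCl2, 1% DMSO, then stopped with EDTA. Substrate and product were separated by microfluidic mobility shift, and IC50 was taken from a 4-parameter fit of normalised inhibition.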
In general terms: Mobility shift assays separate free from complexed probe on a gel.

In series [4] the target is T2, PRKACA-DNAJB1 (Homo sapiens, UniProt P17612).
T2 construct: DNAJB1 (fusion partner, P25685); the other entry of the earlier key: DNAJB1 (P25685, DnaJ homolog subfamily B member 1)
Description: PRKACA-DNAJB1 enzyme assay (EZ Reader 2 electrophoretic mobility shift). It counts as biochemical. Conditions: read-out: Enz PRKACA-DNAJB1 IC50. In a few lines:
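Fluorescent substrate peptide phosphorylated by kinase with ATP in the presence of test compound. Phosphorylated product and unphosphorylated substrate separated by microfluidic electrophoretic mobility shift and detected as separate peaks; product/substrate peak ratio reflects compound effect at each concentration.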

As usually defined, the IC50 is the concentration that gives 50% inhibition.

Take `O=C(N[C@@H]1c2ccccc2C[C@H]1N1CCCC1)c1ccc(-c2ccnc3[nH]ccc23)nc1` [Compound 144, N-[(1R,2R)-2-(Pyrrolidin-1-yl)-2,3-dihydro-1H-inden-1-yl]-6-{1H-pyrrolo[2,3-b]pyridin-4-yl}pyridine-3-carboxamide]: in series [1], the “FLC tumor growth inhibition” value is “significant FLC tumor growth inhibition” and the “tolerability of the dose” value was “tolerated”. In addition, in series [2], the IC50 was less than 50 nM. The IC50 in series [3] was not above 1 nM.

Regarding `Cc1c[nH]c2nccc(-c3ccc(C(=O)N[C@@H]4c5c(F)cc(C(F)F)cc5C[C@@H]4O)cn3)c12` [Compound 162, N-[(1R,2S)-5-(Difluoromethyl)-7-fluoro-2-hydroxy-2,3-dihydro-1H-inden-1-yl]-6-{3-methyl-1H-pyrrolo[2,3-b]pyridin-4-yl}pyridine-3-carboxamide], in series [1], the “FLC tumor growth inhibition” value is “significant FLC tumor growth inhibition”. Besides, in series [1], the “tolerability of the dose” value is “tolerated”. Also, the results for the IC50 in series [4], in series [2] and in series [3] were not above 1 nM, less than 50 nM and not above 1 nM, respectively.

As for `O=C(N[C@@H]1c2c(Cl)cccc2C[C@H]1N1C[C@@H](F)[C@@H](O)C1)c1ccc(-c2ccnc3[nH]ccc23)nc1` [Compound 186], the IC50 in series [4] was 1.01 to 5 nM; in series [2], less than 50 nM; in series [3], not above 1 nM.

With `CO[C@@H]1CCN([C@@H]2Cc3cccc(Cl)c3[C@H]2NC(=O)c2ccc(-c3ccnc4[nH]cc(C)c34)nc2)C1` [Compound 188], the concentration for half-maximal inhibition (IC50) in series [4] was 1.01 to 5 nM; in series [2], 0.01 to 100 nM; in series [3], not above 1 nM.

In the case of `CO[C@@H]1CCN([C@@H]2Cc3cccc(Cl)c3[C@H]2NC(=O)c2ccc(-c3ccnc4[nH]cc(F)c34)nc2)C1` [Compound 189], the IC50 in series [4] is not above 1 nM; in series [2], 0.01 to 100 nM; in series [3], not above 1 nM.

In the case of `O=C(N[C@@H]1c2c(F)cc(C(F)F)cc2C[C@H]1N1CC[C@H](F)C1)c1ccc(-c2ccnc3[nH]ccc23)nc1` [Compound 190], the IC50 in series [4] was not above 1 nM; in series [2] it was less than 50 nM; in series [3], not above 1 nM.

For the compound `CN(C)C(=O)[C@@H]1CCCN1[C@@H]1Cc2cccc(Cl)c2[C@H]1NC(=O)c1ccc(-c2ccnc3[nH]ccc23)nc1` [Compound 191], the IC50 in series [4] is not above 1 nM; in series [2], less than 50 nM; in series [3], not above 1 nM.
